{"source": "paper PMC7766124", "about": "“Improved Cell Selectivity of Pseudin-2 via Substitution in the Leucine-Zipper Motif: In Vitro and In Vivo Antifungal Activity” (Antibiotics, 2020)", "key": {"[1]": {"experiment": "Calcein leakage from fungus-mimic artificial vesicles", "settings": "fungus-mimic PC/PE/PI/ergosterol vesicles, 20 μM lipid; peptide/lipid molar ratio 0.05; 100% = 0.03% Triton X-100; three independent experiments", "method": "(§1) The permeability of peptides in calcein-entrapped artificial liposomes was assayed by measuring calcein leakage. The desired mixtures of lipids (PC/PE/PI/ergosterol, 5:4:1:2 and PC/CH/SM, 2:1:1, weight ratio) were dissolved in chloroform at 10 mg/mL, dried in a glass tube under nitrogen, and then lyophilized overnight to remove residual solvent. The dried lipid films were resuspended in 1 mL of dye solution (80 mM calcein, 10 mM HEPES buffer, pH 7.2) at 50 °C and vortexed, followed by freeze-thawing for nine cycles and extrusion with polycarbonate filters (0.2-μm pore-size) using an Avanti Mini-Extruder (Avanti Polar Lipids Inc., Alabaster, AL, USA). Free calcein was removed using PD-10 desalting columns (GE Healthcare Life Science, Seoul, Korea). Calcein-entrapped vesicles of 20 μM lipids were incubated with peptides at concentrations of […], 0.02, 0.05, and 0.1 molar ratio (peptide/lipid) and the fluorescence was assessed at 480 (Ex) and 520 (Em) nm using a microtiter SpectraMax M5 reader (Molecular Devices). Complete (100%) release was achieved by the addition of 0.03% Triton X-100 (v/v)."}, "[2]": {"tested_on": "C. krusei", "format": "cell-based, C. krusei (CCARM 14017)", "settings": "36 h", "excerpt": "Aspergillus flavus (KCTC 6905), A. fumigatus (KCTC 6145), Fusarium moniliforme (KCTC 6149), F. oxysporum (KCTC 16909), C. albicans (KCTC 7270), C. krusei (CCARM 14017), C. parapsilosis (CCARM 14016), C. tropicalis (KCTC 7221), and T. beigelii (KCTC 7707) were obtained from the Korea Collection for Type Cultures (KCTC) and Culture Collection of Antimicrobial Resistant Microbes (CCARM). Mold and yeast fungi were pre-grown on potato dextrose (PD) and yeast extract peptone dextrose (YPD) agars, respectively.\nAntifungal activity of peptides was performed by microtiter plate assays. Fungal conidia from four-day-old molds were collected using 0.08% Triton X-100 (v/v), and pre-cultivated yeast cells were adjusted to 2 × 10^4 spores/mL in 10 mM sodium phosphate buffer (SP, pH 7.2) or 10 mM 2-(N-morpholino)ethanesulfonic acid (MES) buffer (pH 5.5) supplemented with 20% culture medium, followed by addition to peptide solutions (0.25, 0.5, 1, 1.5, 2, 4, 6, 8, 12, 16, 32, 48, and 64 µM) in 96-well microtiter plates. After incubation for 36 h at 28 °C, the hyphal growth of conidia and the proliferation of yeast cells were observed under a light microscope. All assays were performed in triplicate. The MIC values were defined as the lowest concentration of samples that reduced fungal germination (for mold) or cell proliferation (for yeast) by more than 90% [34]."}, "[3]": {"tested_on": "C. tropicalis cells", "experiment": "Mitochondrial superoxide, MitoSOX Red flow cytometry", "format": "cell-based", "settings": "peptide at MIC for 8 h", "method": "Mitochondrial SOX was measured using MitoSOX Red probe. C. tropicalis cells (2 × 10^4 spores/mL) were treated with samples at the appropriate MIC for 8 h and then stained with MitoSOX Red according to the manufacturer’s instructions. The stained cells were acquired by flow cytometry (Attune NxT Acoustic Focusing Cytometer; ThermoFisher Scientific Co., Eugene, OR, USA) at 561 nm by 10,000 total events."}, "[4]": {"experiment": "Calcein leakage from mammalian-mimic artificial vesicles", "settings": "mammalian-mimic PC/CH/SM vesicles, 20 μM lipid; peptide/lipid molar ratio 0.1; 100% = 0.03% Triton X-100", "method": "as §1"}}, "note": "Like-named read-outs stand apart in the source and are kept apart here. No end group written: not given here."}
{"substance": "GLNALKKVFQGIHEAIKLINNHVQ-NH2 [Pseudin-2]", "values": [{"measurement": "leakage of calcein", "setting": "[1]", "result": 80.1, "unit": "%"}, {"measurement": "MIC", "setting": "[2]; pH 5.5", "result": "8 (8) µM"}, {"measurement": "MIC", "setting": "[2]; pH 7.2", "result": "8 (8) µM"}, {"measurement": "MitoSOX Red fluorescence (mitochondrial SOX)", "setting": "[3]", "result": "a little right shift"}, {"measurement": "calcein efflux", "setting": "[4]", "result": "significant dye leakage"}]}
